Assay results taken from patent publication US11149031B2, “Substituted N-(3-fluoropropyl)-pyrrolidine compounds, processes for their preparation and therapeutic uses thereof” (SANOFI, priority 2016, dated 2021).

What was measured:
ERα in MCF7 cells = ERα in MCF7 cells (Homo sapiens (Human), UniProt P03372); test: Test C: estrogen receptor degradation activity, ERα in cell western assay in MCF7 cells; assay type: cell-based; settings: for DC50: 4 hours post compound addition, ERα in cell western, read-out: Degradation IC50; for % Degradation at 3 μM: 4 hours, relative to fulvestrant
Method: Test C: Estrogen Receptor Degradation Activity
Test C involves measuring the in vitro degradation activity of the compounds of the invention.
The measurements of the degradation activities were made using abreast cancer cell ERα in cell western assay as described hereunder.
MCF7 cells (ATCC) were seeded in 384 wells microplate (collagen coated) at concentration of >9990 cells/30 μL per well in red phenol free MEM alpha medium (invitrogen) containing 5% charcoal dextran striped FBS. The following day, 9 points serial 1:5 dilution of each compound were added to the cells in 2.5 μL at final concentrations ranging from 3-0.000018 μM or 0.1 μM for fulvestrant (using as positive control). At 4 hours post compounds addition the cells were fixed by adding 25 μL of formalin (final concentration 5% formalin containing 0.1% triton) for 10 minutes at room temperature and then washed twice with PBS. Then, 50 μL of LI-COR blocking buffer containing 0.1% Triton was added to plate for 30 minutes at room temperature. LI-COR blocking buffer was removed and cells were incubated overnight at cold room with 50 μL anti-ER rabbit monoclonal antibody (Thermo scientific MA1-39540) diluted at 1:>999 in LI-COR blocking buffer containing 0.1% tween-20. Wells which were treated with blocking but no antibody were used as background control. Wells were washed twice with PBS (0.1% tween-20) and incubated at 37° C. for 60 minutes in LI-COR (0.1% tween-20) containing goat anti-rabbit antibody Alexa 488 (1:>999) and Syto-64 a DNA dye (2 μM final concentration). Cells were then washed 3 times in PBS and scanned in ACUMEN explorer (TTP-Labtech). Integrated intensities in the green fluorescence and red fluorescence were measured to determine the levels of ERα and DNA respectively.

[1] = molecular target: His6-ERα298-554 Y537S mutant (ERα ligand-binding domain) (Homo sapiens (Human), UniProt P03372, Y537S); test: Test A: biochemical antagonist activity, LanthaScreen TR-FRET ERα coactivator assay, Y537S mutant; settings: protocol with 3 nM estradiol; read-out: Antagonism Y537S IC50
Method: (§1) Test A: Biochemical Antagonist Activity on Wild Type (WT) and Mutants
(§2) Estrogen Receptors Test A involves measuring the in vitro antagonist activity of the compounds of the invention on estrogen receptors.
(§3) The measurements of the antagonist activities were made using an estrogen receptor coactivator assay as described hereunder.
(§4) Antagonistic potency of compounds was evaluated using LanthaScreen® TR-FRET ERα Coactivator Assay (ThermoFisher) with modifications. […] The assay works in a homogeneous mix-and-read format. In a typical experiment, a 4 μL mixture of 0.5 nM His6-ERα298-554, 0.5 nM Tb-labeled His6 antibody, 250 nM PGC1a peptide, and 3 nM estradiol (or 10 nM estradiol) in 100 mM potassium phosphate, pH 7.4, 0.01% Tween-20, 0.02% NaN3, 5 mM DTT, was added to 40 nL test compound in DMSO and incubated overnight at room temperature. The TR-FRET 520:495 nm emission ratio was calculated and used to determine the IC50 value from a dose response curve fit to the 4-parameter logistic equation.

[2] = molecular target: His6-ERα298-554 D538G mutant (ERα ligand-binding domain) (Homo sapiens (Human), UniProt P03372, D538G); test: Test A: biochemical antagonist activity, LanthaScreen TR-FRET ERα coactivator assay, D538G mutant; settings: protocol with 3 nM estradiol; read-out: Antagonism D538G IC50
Method: as §1, §2, §3, §4

[3] = molecular target: His6-ERα298-554 WT (ERα ligand-binding domain) (Homo sapiens (Human), UniProt P03372); test: Test A: biochemical antagonist activity, LanthaScreen TR-FRET ERα coactivator assay, WT; settings: protocol with 3 nM estradiol; read-out: Antagonism WT IC50
Method: as §1, §2, §3, §4

His6-ERα298-554 WT (ERα ligand-binding domain), sequence (P03372 298-554): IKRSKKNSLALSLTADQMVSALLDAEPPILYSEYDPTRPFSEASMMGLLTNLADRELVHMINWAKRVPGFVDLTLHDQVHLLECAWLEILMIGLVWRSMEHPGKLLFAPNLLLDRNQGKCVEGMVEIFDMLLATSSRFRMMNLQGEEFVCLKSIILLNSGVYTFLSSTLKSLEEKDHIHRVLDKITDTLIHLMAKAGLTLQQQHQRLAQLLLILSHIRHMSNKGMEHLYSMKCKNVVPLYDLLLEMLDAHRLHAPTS
His6-ERα298-554 D538G mutant (ERα ligand-binding domain), sequence (P03372 298-554 D538G): as the sequence (P03372 298-554) above, with D241G counted along it
His6-ERα298-554 Y537S mutant (ERα ligand-binding domain), sequence (P03372 298-554 Y537S): as the sequence (P03372 298-554) above, with Y240S counted along it
ERα in MCF7 cells, sequence (P03372 whole entry): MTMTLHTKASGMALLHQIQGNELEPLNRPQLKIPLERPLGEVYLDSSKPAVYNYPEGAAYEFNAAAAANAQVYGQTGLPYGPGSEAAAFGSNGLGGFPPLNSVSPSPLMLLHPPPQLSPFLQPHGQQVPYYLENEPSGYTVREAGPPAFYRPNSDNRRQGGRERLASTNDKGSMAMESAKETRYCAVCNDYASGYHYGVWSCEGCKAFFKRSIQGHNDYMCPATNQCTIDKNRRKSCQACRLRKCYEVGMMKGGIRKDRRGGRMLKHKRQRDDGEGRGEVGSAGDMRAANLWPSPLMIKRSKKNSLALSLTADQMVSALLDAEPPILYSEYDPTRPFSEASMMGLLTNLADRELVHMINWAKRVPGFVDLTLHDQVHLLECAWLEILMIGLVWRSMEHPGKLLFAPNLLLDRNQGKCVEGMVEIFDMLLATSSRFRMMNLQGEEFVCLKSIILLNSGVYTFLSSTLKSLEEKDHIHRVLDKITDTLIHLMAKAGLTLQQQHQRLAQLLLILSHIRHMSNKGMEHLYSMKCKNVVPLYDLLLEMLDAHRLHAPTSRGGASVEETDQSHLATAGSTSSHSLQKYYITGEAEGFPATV

Row | Compound | DC50 (ERα in MCF7 cells) [nM] | % Degradation at 3 μM (ERα in MCF7 cells) [%] | IC50 [1] [nM] | IC50 [2] [nM] | IC50 [3] [nM]
1 | Oc1ccc2c(c1F)OCCC(c1ccc3c(c1)NCC3)=C2c1ccc(O[C@H]2CCN(CCCF)C2)cc1 [Example 132, 9-fluoro-5-[4-[(3S)-1-(3-fluoropropyl)pyrrolidin-3-yl]oxyphenyl]-4-indolin-6-yl-2,3-dihydro-1-benzoxepin-8-ol] | 2 | 88 | 334 | 473 | 28
2 | Oc1ccc2c(c1Cl)OCCC(c1ccc3[nH]ccc3c1)=C2c1ccc(O[C@H]2CCN(CCCF)C2)cc1 [Example 114, 9-chloro-5-[4-[(3S)-1-(3-fluoropropyl)pyrrolidin-3-yl]oxyphenyl]-4-(1H-indol-5-yl)-2,3-dihydro-1-benzoxepin-8-ol] | 5 | 71 | 104 | 178 | 29
3 | Cc1ccc(C2=C(c3ccc(O[C@H]4CCN(CCCF)C4)cc3)c3ccc(O)c(C)c3OCC2)c(F)c1 [Example 111, 4-(2-fluoro-4-methyl-phenyl)-5-[4-[(3S)-1-(3-fluoropropyl)pyrrolidin-3-yl]oxyphenyl]-9-methyl-2,3-dihydro-1-benzoxepin-8-ol] | 6 | 86 | 407 | 822 | 91
4 | Oc1ccc2c(c1)SCC(c1ccc3[nH]ccc3c1)=C2c1ccc(O[C@H]2CCN(CCCF)C2)cc1 [Example 19, 4-[4-[(3S)-1-(3-fluoropropyl)pyrrolidin-3-yl]oxyphenyl]-3-(1H-indol-5-yl)-2H-thiochromen-7-ol] | 3 | 78 | 11 | 23 | 7
5 | CCOc1ccc(C2=C(c3ccc(O[C@H]4CCN(CCCF)C4)cc3)c3ccc(O)cc3OCC2)cn1 [Example 127, 4-(6-ethoxy-3-pyridyl)-5-[4-[(3S)-1-(3-fluoropropyl)pyrrolidin-3-yl]oxyphenyl]-2,3-dihydro-1-benzoxepin-8-ol] | 0.8 | 90 | 24 | 49 | 3
6 | Cc1cc(F)ccc1C1=C(c2ccc(O[C@H]3CCN(CCCF)C3)cc2)c2ccc(O)cc2S(=O)(=O)CC1 [Example 234, 4-(4-fluoro-2-methyl-phenyl)-5-[4-[(3S)-1-(3-fluoropropyl)pyrrolidin-3-yl]oxyphenyl]-1,1-dioxo-2,3-dihydro-1λ^6-benzothiepin-8-ol] | 0.2 | 90 | 33 | 59 | 9
7 | Cc1cc2c(cc1O)OCCC(c1ccc3c(c1)CCN3)=C2c1ccc(O[C@H]2CCN(CCCF)C2)cc1 [Example 137, 5-[4-[(3S)-1-(3-fluoropropyl)pyrrolidin-3-yl]oxyphenyl]-4-indolin-5-yl-7-methyl-2,3-dihydro-1-benzoxepin-8-ol] | 5 | 75 | 1220 | 1710 | 250
8 | Oc1ccc2c(c1Cl)OCCC(c1ccc3cc[nH]c3c1)=C2c1ccc(O[C@H]2CCN(CCCF)C2)cc1 [Example 123, 9-chloro-5-[4-[(3S)-1-(3-fluoropropyl)pyrrolidin-3-yl]oxyphenyl]-4-(1H-indol-6-yl)-2,3-dihydro-1-benzoxepin-8-ol] | 15 | 81 | 1430 | 2290 | 156
9 | Oc1ccc2c(c1)SCCC(c1ccc(Cl)cc1F)=C2c1ccc(O[C@H]2CCN(CCCF)C2)cc1 [Example 167, 4-(4-chloro-2-fluoro-phenyl)-5-[4-[(3S)-1-(3-fluoropropyl)pyrrolidin-3-yl]oxyphenyl]-2,3-dihydro-1-benzothiepin-8-ol] | 0.5 | 87 | 16 | 26 | 5
10 | Oc1ccc2c(c1F)OCCC(c1cccc3[nH]ccc13)=C2c1ccc(O[C@H]2CCN(CCCF)C2)cc1 [Example 133, 9-fluoro-5-[4-[(3S)-1-(3-fluoropropyl)pyrrolidin-3-yl]oxyphenyl]-4-(1H-indol-4-yl)-2,3-dihydro-1-benzoxepin-8-ol] | 2 | 83 | 39 | 64 | 4
11 | Oc1ccc2c(c1)C(c1ccc(O[C@H]3CCN(CCCF)C3)cc1)=C(c1ccc(F)cc1Cl)CCS2 [Example 175, 4-(2-chloro-4-fluoro-phenyl)-5-[4-[(3S)-1-(3-fluoropropyl)pyrrolidin-3-yl]oxyphenyl]-2,3-dihydro-1-benzothiepin-7-ol] | 0.3 | 83 | 65 | 116 | 20
12 | O=S1(=O)CCC(c2ccc(Cl)cc2F)=C(c2ccc(O[C@H]3CCN(CCCF)C3)cc2)c2ccc(O)cc21 [Example 233, 4-(4-chloro-2-fluoro-phenyl)-5-[4-[(3S)-1-(3-fluoropropyl)pyrrolidin-3-yl]oxyphenyl]-1,1-dioxo-2,3-dihydro-1λ^6-benzothiepin-8-ol] | 0.2 | 94 | 70 | 128 | 20
13 | Cc1cc(C2=C(c3ccc(O[C@H]4CCN(CCCF)C4)cc3)c3cc(O)ccc3SCC2)ccc1Cl [Example 179, 4-(4-chloro-3-methyl-phenyl)-5-[4-[(3S)-1-(3-fluoropropyl)pyrrolidin-3-yl]oxyphenyl]-2,3-dihydro-1-benzothiepin-7-ol] | 4 | 80 | 80 | 114 | 12
14 | Oc1ccc2c(c1)C(c1ccc(O[C@H]3CCN(CCCF)C3)cc1)=C(c1ccc(F)c(Cl)c1)CCS2 [Example 174, 4-(3-chloro-4-fluoro-phenyl)-5-[4-[(3S)-1-(3-fluoropropyl)pyrrolidin-3-yl]oxyphenyl]-2,3-dihydro-1-benzothiepin-7-ol] | 4 | 81 | 222 | 422 | 53
15 | Cc1c(Cl)cccc1C1=C(c2ccc(O[C@H]3CCN(CCCF)C3)cc2)c2cc(O)ccc2SCC1 [Example 173, 4-(3-chloro-2-methyl-phenyl)-5-[4-[(3S)-1-(3-fluoropropyl)pyrrolidin-3-yl]oxyphenyl]-2,3-dihydro-1-benzothiepin-7-ol] | 4 | 82 | 87 | 145 | 21
16 | Oc1ccc(C2=C(c3ccc(O[C@H]4CCN(CCCF)C4)cc3)c3cc(O)ccc3CC2)c(F)c1 [Example 6, 7-(2-fluoro-4-hydroxy-phenyl)-8-[4-[(3S)-1-(3-fluoropropyl)pyrrolidin-3-yl]oxyphenyl]-5,6-dihydronaphthalen-2-ol] | 0.2 | 84 | 8 | 13 | 2
17 | Cc1cc(F)ccc1C1=C(c2ccc(O[C@H]3CCN(CCCF)C3)cc2)c2ccc(O)cc2OCC1 [Example 100, 4-(4-fluoro-2-methyl-phenyl)-5-[4-[(3S)-1-(3-fluoropropyl)pyrrolidin-3-yl]oxyphenyl]-2,3-dihydro-1-benzoxepin-8-ol] | 0.2 | 88 | 25 | 54 | 7
18 | Cc1cccc(C2=C(c3ccc(O[C@H]4CCN(CCCF)C4)cc3)c3ccc(O)cc3OCC2)c1C [Example 122, 4-(2,3-dimethylphenyl)-5-[4-[(3S)-1-(3-fluoropropyl)pyrrolidin-3-yl]oxyphenyl]-2,3-dihydro-1-benzoxepin-8-ol] | 0.3 | 91 | 24 | 41 | 3
